Among the data in patent US8877707B2, “Inhibitors of HCV NS5A” (Presidio Pharmaceuticals, Inc., priority 2010, dated 2014) are EC50 values, retold here.

SMILES strings stand for the structures. pEC50: −log10 of the molar value. A value given as a limit tells only on which side of the number the result lay.

The test deals with HCV genotype 1b replicon in Huh 7 cells. Briefly: HCV replicon assay (1b_Huh-Luc/Neo-ET cell line, luciferase readout). It is filed as cell-based. As to conditions: Hepatitis C virus; Table 1; genotype 1b replicon, Huh 7 cells, 72 h, luciferase; read-out: Inhibition of HCV genotype 1b. The method in brief: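 Replicon level was read as luciferase signal after 72 h compound exposure, triplicate wells, starting the day after cells were plated. Cell line: 1b_Huh-Luc/Neo-ET. Values normalised to control as percent, and EC50 fitted with a variable-slope sigmoid; determinations repeated.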
For orientation: In antiviral work, replicon cells carry a viral genome segment that copies itself.
For `COC(=O)N[C@H](C(=O)N1CCC[C@H]1c1nc(-c2ccc3cc(-c4ccc(-c5cnc([C@@H]6CCCN6C(=O)[C@@H](NC(=O)OC)C(C)C)[nH]5)nc4)ccc3c2)c[nH]1)C(C)C` [compound 83], the pEC50 is over 9.00.
To `COC(=O)N[C@H](C(=O)N1CCC[C@H]1c1nc(-c2ccc3cc(-c4ccc(-c5cnc([C@@H]6CCCN6C(=O)[C@@H](NC(=O)OC)C6CCOCC6)[nH]5)nc4)ccc3c2)c[nH]1)C(C)C` [compound 84] belongs over 9.00; to `COC(=O)N[C@H](C(=O)N1CCC[C@H]1c1nc(-c2ccc3cc(-c4ccc(-c5cnc([C@@H]6CCCN6C(=O)[C@@H](NC(=O)OC)C(C)C)[nH]5)cc4C)ccc3c2)c[nH]1)C(C)C` [compound 85], over 9.00.
With `COC(=O)N[C@H](C(=O)N1CCC[C@H]1c1nc(-c2ccc3cc(-c4ccc(-c5cnc([C@@H]6CCCN6C(=O)[C@@H](NC(=O)OC)C6CCOCC6)[nH]5)cc4C)ccc3c2)c[nH]1)C(C)C` [compound 86] the figure was over 9.00.
As to `COC(=O)N[C@H](C(=O)N1CCC[C@H]1c1ncc(-c2ccc(-c3ccc4cc(-c5c[nH]c([C@@H]6CCCN6C(=O)[C@H](NC(=O)OC)c6ccccc6)n5)ccc4c3)c(C)c2)[nH]1)C(C)C` [compound 87], the pEC50 was over 9.00.
With `COC(=O)N[C@H](C(=O)N1CCC[C@H]1c1nc(-c2cnc3cc(-c4ccc(-c5cnc([C@@H]6CCCN6C(=O)[C@H](NC(=O)OC6CCOCC6)c6ccccc6)[nH]5)cc4)ccc3c2)c[nH]1)C(C)C` [compound 88] the figure was over 9.00; with `COC(=O)N[C@H](C(=O)N1CCC[C@H]1c1nc(-c2cnc3cc(-c4ccc(-c5cnc([C@@H]6CCCN6C(=O)[C@H](NC(=O)OC6CCOCC6)c6ccccc6)[nH]5)cc4)ccc3c2)c[nH]1)C1CCOCC1` [compound 89], over 9.00.
As for `COC(=O)N[C@H](C(=O)N1CCC[C@H]1c1ncc(-c2ccc(-c3ccc4cc(-c5c[nH]c([C@@H]6CCCN6C(=O)[C@H](NC(=O)OC)c6ccccc6)n5)ccc4n3)cc2)[nH]1)C1CCOCC1` [compound 90], the pEC50 was over 9.00.
With `COC(=O)N[C@H](C(=O)N1CCC[C@H]1c1ncc(-c2ccc(-c3ccc4cc(-c5c[nH]c([C@@H]6CCCN6C(=O)[C@H](NC(=O)OC(C)(C)C)c6ccccc6)n5)ccc4n3)cc2)[nH]1)C1CCOCC1` [compound 91] the figure was over 9.00.
With `COC(=O)N[C@H](C(=O)N1CCC[C@H]1c1ncc(-c2ccc(-c3ccc4cc(-c5c[nH]c([C@@H]6CCCN6C(=O)[C@H](NC(=O)OC6CCOCC6)c6ccccc6)n5)ccc4n3)cc2)[nH]1)C1CCOCC1` [compound 92] the figure was over 9.00.
Regarding `COC(=O)N[C@H](C(=O)N1CCC[C@H]1c1nc(-c2cnc3cc(-c4ccc(-c5cnc([C@@H]6CCCN6C(=O)[C@@H](NC(=O)OC)C(C)C)[nH]5)nc4)ccc3c2)c[nH]1)C(C)C` [compound 93], the pEC50 was over 9.00.
To `COC(=O)N[C@H](C(=O)N1CCC[C@H]1c1ncc(-c2ccc(-c3ccc4cc(-c5c[nH]c([C@@H]6CCCN6C(=O)[C@H](NC(=O)OC)c6ccccc6)n5)cnc4c3)cn2)[nH]1)C(C)C` [compound 94] belongs over 9.00.
To `COC(=O)N[C@H](C(=O)N1CCC[C@H]1c1ncc(-c2ccc(-c3ccc4cc(-c5c[nH]c([C@@H]6CCCN6C(=O)[C@@H](NC(=O)OC)C6CCOCC6)n5)cnc4c3)cn2)[nH]1)C(C)C` [compound 95] belongs over 9.00; to `COC(=O)N[C@H](C(=O)N1CCC[C@H]1c1nc(-c2ccc3nc(-c4ccc(-c5cnc([C@@H]6CCCN6C(=O)[C@@H](NC(=O)OC)C(C)C)[nH]5)cc4F)ccc3c2)c[nH]1)C(C)C` [compound 96], over 9.00; to `COC(=O)N[C@@H](C(=O)N1CCC[C@H]1c1nc(-c2ccc3nc(-c4ccc(-c5cnc([C@@H]6CCCN6C(=O)[C@H](NC(=O)OC)c6ccccc6)[nH]5)cc4F)ccc3c2)c[nH]1)c1ccccc1` [compound 97], over 9.00.
To `COC(=O)N[C@H](C(=O)N1CCC[C@H]1c1nc(-c2ccc3nc(-c4ccc(-c5cnc([C@@H]6CCCN6C(=O)[C@@H](NC(=O)OC)C6CCOCC6)[nH]5)cc4F)ccc3c2)c[nH]1)C1CCOCC1` [compound 98] belongs over 9.00.
In the case of `COC(=O)N[C@H](C(=O)N1CCC[C@H]1c1nc(-c2ccc3cc(-c4ccc(-c5cnc([C@@H]6CCCN6C(=O)[C@H](NC(=O)OC)c6ccccc6)[nH]5)cc4)ccc3c2)c[nH]1)C1CCOCC1` [compound 99], the pEC50 is over 9.00.
To `COC(=O)N[C@H](C(=O)N1CCC[C@H]1c1nc(-c2ccc3cc(-c4ccc(-c5cnc([C@@H]6CCCN6C(=O)[C@H](NC(=O)OC)c6ccccc6)[nH]5)cc4)ncc3c2)c[nH]1)C1CCOCC1` [compound 100] belongs over 9.00.
To `COC(=O)N[C@H](C(=O)N1CCC[C@H]1c1ncc(-c2ccc(-c3cc4ccc(-c5c[nH]c([C@@H]6CCCN6C(=O)[C@H](NC(=O)OC)c6ccccc6)n5)cc4cn3)cc2)[nH]1)C1CCOCC1` [compound 101] belongs over 9.00; to `COC(=O)N[C@H](C(=O)N1CCC[C@H]1c1nc(-c2ccc3cc(-c4ccc(-c5cnc([C@@H]6CCCN6C(=O)[C@@H](NC(=O)OC)C(C)C)[nH]5)cc4)ccc3n2)c[nH]1)C(C)C` [compound 102], over 9.00; to `COC(=O)N[C@H](C(=O)N1CCC[C@H]1c1ncc(-c2ccc(-c3ccc4nc(-c5c[nH]c([C@@H]6CCCN6C(=O)[C@H](NC(=O)OC)c6ccccc6)n5)ccc4c3)cc2)[nH]1)C(C)C` [compound 103], over 9.00.
With `COC(=O)N[C@H](C(=O)N1CCC[C@H]1c1ncc(-c2ccc(-c3ccc4cc(-c5c[nH]c([C@@H]6CCCN6C(=O)[C@@H](NC(=O)OC)C6CCOCC6)n5)ccc4c3)c(C)c2)[nH]1)C(C)C` [compound 104] the figure was over 9.00.
As for `COC(=O)N[C@H](C(=O)N1CCC[C@H]1c1ncc(-c2ccc(-c3ccc4cc(-c5c[nH]c([C@@H]6CCCN6C(=O)[C@H](NC(=O)OC)c6ccccc6)n5)ccc4c3)cc2)[nH]1)C1CCOCC1` [compound 105], the pEC50 was over 9.00.
To `COC(=O)N[C@H](C(=O)N1CCC[C@H]1c1ncc(-c2ccc(-c3ccc4cc(-c5c[nH]c([C@@H]6CCCN6C(=O)[C@H](NC(=O)OC)c6ccccc6)n5)ccc4c3)c(F)c2)[nH]1)C1CCOCC1` [compound 106] belongs over 9.00.
As for `COC(=O)N[C@H](C(=O)N1CCC[C@H]1c1nc(-c2ccc3nc(-c4ccc(-c5cnc([C@@H]6CCCN6C(=O)[C@H](NC(=O)OC)c6ccccc6)[nH]5)cc4F)ccc3c2)c[nH]1)C(C)C` [compound 107], the pEC50 is over 9.00.
To `COC(=O)N[C@H](C(=O)N1CCC[C@H]1c1nc(-c2ccc3nc(-c4ccc(-c5cnc([C@@H]6CCCN6C(=O)[C@@H](NC(=O)OC)C6CCOCC6)[nH]5)c(F)c4)ccc3c2)c[nH]1)C1CCOCC1` [compound 108] belongs over 9.00; to `COC(=O)N[C@@H](C(=O)N1CCC[C@H]1c1nc(-c2ccc3nc(-c4ccc(-c5cnc([C@@H]6CCCN6C(=O)[C@H](NC(=O)OC)c6ccccc6)[nH]5)c(F)c4)ccc3c2)c[nH]1)c1ccccc1` [compound 109], over 9.00.
With `COC(=O)N[C@H](C(=O)N1CCC[C@H]1c1nc(-c2ccc3cc(-c4ccc(-c5cnc([C@@H]6CCCN6C(=O)[C@H](NC(=O)OC)c6ccsc6)[nH]5)cc4)ccc3c2)c[nH]1)C1CCOCC1` [compound 110] the figure was over 9.00.
